# Patent US8653054B2, “2-(N-substituted piperazinyl) steroid derivatives” (Universite Laval, priority 2008, dated 2014)
# Read-outs that look alike come from different tables or passages of the source.
# Tests used:
# [1] = tested on: PC-3 (AR−) prostate cancer cells; experiment: Cell proliferation assay (MTS) on PC-3 (AR−) prostate cancer cells; type: cell-based; conditions: Table 3, 3 days incubation
# Experimental: (§1) All of the following cell lines were maintained under a CO2 humidified atmosphere at 37° C. The culture media were changed every 3-4 days and the cells were split once a week.
# (§2) For the assay, the culture medium was the same.
# (§3) The cell proliferation assay was performed using 3-(4,5-dimethylthiazol-2-yl)-5-(3-carboxymethoxyphenyl)2-(4-sulfophenyl)-2H-tetrazolium (MTS) (Cell Titer 96 Aqueous, Promega, USA). MTS is converted into water-soluble colored formazan by dehydrogenase enzymes present in metabolically active cells, which allows the measurement of the number of viable cells.
# (§4) The cells were incubated at 37° C. and 5% CO2. The steroid derivatives of the present disclosure were dissolved in ethanol to prepare the 1×10^−2 M stock solutions. The stock solutions and doxorubicin (DOX) (Novapharm, Toronto, Canada) were diluted at multiple concentrations with culture media, added to each well, as indicated, and incubated for 3 days. Following each treatment, 20 μl MTS was added to each well and the mix was incubated for 4 h.
# [2] = tested on: normal lymphocytes from peripheral blood; experiment: Cell proliferation assay (MTS) on normal lymphocytes
# Experimental: as §1, §2, §3, §4
# [3] = Plasmatic concentration (AUC) of aminosteroids after a single subcutaneous injection in rat; conditions: 2.3 mg/kg
# [4] = tested on: Shionogi mammary carcinoma cells (AR+); experiment: Cell proliferation assay (MTS) on Shionogi mammary carcinoma cells; type: cell-based; conditions: Table 3, 3 days incubation
# Experimental: Shionogi mammary carcinoma cells bearing androgen-sensitive (AR+) were routinely grown in Eagle's Minimal Essential Medium (MEM) (Sigma, Saint Louis, USA) supplemented with 5% (v/v) fetal bovine serum (FBS), penicillin (100 IU/ml), streptomycin sulphate (50 μg/ml), 1% (v/v) non-essential amino acids and dihydrotestosterone DHT (10^−8 M). For the assay, MEM devoid of the pH indicator phenol red was supplemented with 2% (v/v) charcoal-strippes FBS and the same concentrations of antibiotics and non-essential amino acids as above.
# [5] = tested on: MCF-7 breast cancer cells; experiment: Cell proliferation assay (MTS) on MCF-7 breast cancer cells; type: cell-based, human; conditions: Table 3, 3 days incubation
# Experimental: MCF-7 breast cancer cells were maintained in Dulbecco's Modified Eagle's Medium (DMEM) containing a nutriment mixture F-12 ham (DME-F12) (Sigma, Saint Louis, USA) supplemented with 5% (v/v) fetal bovine serum (FBS), L-glutamine ([…]), penicillin (100 IU/ml), streptomycin sulphate (50 μg/ml) and estradiol (1 nM). For the assay, DME-F12 was supplemented with 5% (v/v) charcoal-strippes FBS, insulin (50 ng/ml) and the same concentrations of antibiotics as above.
# [6] = tested on: LNCaP prostate cancer cells; experiment: Cell proliferation assay (MTS) on LNCaP prostate cancer cells; type: cell-based; conditions: Table 3, 3 days incubation
# Experimental: as §3, §4
# [7] = tested on: OVCAR-3 ovarian cancer cells; experiment: Cell proliferation assay (MTS) on OVCAR-3 ovarian cancer cells; type: cell-based; conditions: Table 3; 3 days incubation, MTS
# Description: For the assay, the culture medium was the same, but without estradiol.
# [8] = tested on: WI-38 diploid fibroblasts; experiment: Cell proliferation assay (MTS) on WI-38 normal fibroblasts; type: cell-based, human; conditions: Table 3, normal cells, 3 days incubation
# Experimental: WI-38 diploid fibroblasts derived from embryonic human lung were cultured in MEM (devoid of the pH indicator phenol red) supplemented with 10% (v/v) FBS, L-glutamine (2 nM), penicillin (100 IU/ml), streptomycin sulphate (50 μg/ml), sodium pyruvate (1 mM) and non-essential amino acids (0.1 mM).
# as §3, §4
# [9] = tested on: K-562 leukemia cells; experiment: Cell proliferation assay (MTS) on K-562 leukemia cells; type: cell-based; conditions: Table 3, 3 days incubation
# Experimental: as §1, §2, §3, §4
# [10] = tested on: MDA-MB-231 (ER−) breast cancer cells; experiment: Cell proliferation assay (MTS) on MDA-MB-231 (ER−) breast cancer cells; type: cell-based; conditions: Table 3, 3 days incubation
# Experimental: as §1, §2, §3, §4
# [11] = tested on: human MCF-7 breast cancer xenografts; experiment: Growth of human MCF-7 breast cancer xenografts in nude mice; type: in vivo; conditions: OVX nude mice, 60 mg/kg s.c. 3 times a week, E2-stimulated; FIG. 1
# Experimental: MCF-7 breast cancer cells were obtained from the ATCC (Rockville, Md.) and were propagated in Dubelcco's Modified Eagle's Medium nutrient mixture F-12 ham (DME-F12) medium supplemented with 5% FBS, glutamine (2 mM), penicillin (100 IU/mL), streptomycin (100 μg/mL) and estradiol (1 nM). These cells were used to induce tumors in homozygous female nu/nu Brathymic mice (28-42 days old) that were obtained from Charles River (Saint-Constant, Canada). Bilateral ovariectomy was performed under isoflurane-induced anesthesia. At the time of ovariectomy, an implant of estradiol (E2) was inserted s.c. to stimulate initial tumor growth. E2 implants were prepared in 1 cm long Silastic tubing (inside diameter 0.062 inch, outside diameter 0.095 inch) containing 5 mm of 1:8 (w/w) mixture of E2 and cholesterol. One week after ovariectomy, 4.1×10^6 MCF-7 cells were inoculated s.c. in 0.1 mL of medium growth+30% Matrigel on both flanks of each ovariectomized (OVX) mouse through a 2.5 cm long 22-gauge needle. After approximately 5 weeks, the mice were randomly assigned to 2 groups according to tumor size. […] The size of tumors was measured by two perpendicular diameters and tumor area (mm^2) was calculated using the formula L/2×W/2×π. The area measured on the first day of treatment was taken as 100% (FIG. 1). […]
# [12] = tested on: HL-60 acute promyelocytic leukemia cells; experiment: Cell proliferation assay (MTS) on HL-60 leukemia cells; type: cell-based, human;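 also: cells exposed to serially diluted compound for 3 days at 37 °C, then viable cell number read via MTS conversion to coloured formazan by metabolically active cells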
# Experimental: as §1, §2, §3, §4
smiles,measurement,setting,value
C[C@]12C[C@H](N3CCN(C(=O)[C@@H]4CCCN4C(=O)c4cccc5ccccc45)CC3)[C@@H](O)C[C@@H]1CC[C@@H]1[C@@H]2CC[C@]2(C)[C@@H](O)CC[C@@H]12 [PC-37],IC50,[1],6500 nM
same,toxicity on normal healthy lymphocytes,[2]; even at high concentrations (>10 μM),little or no toxicity
same,IC50,"[2]; read-out: IC50 Lymph Norm., Table 3, normal lymphocytes, 3 days incubation, MTS",36000 nM
same,AUC (7 h),"[3]; Table 5, subcutaneous one time",337 ng·h/mL
same,AUC (24 h),"[3]; Table 5, subcutaneous one time",552 ng·h/mL
same,AUC(12 h),"[3]; Table 5, subcutaneous one time",462 ng·h/mL
same,AUC (0-3 h),"[3]; Table 6, subcutaneous one time",97 ng·h/mL
same,AUC (0-12 h),"[3]; Table 6, subcutaneous one time",429 ng·h/mL
same,IC50,[4],200 nM
same,IC50,[5],500 nM
same,IC50,[6],1500 nM
same,IC50,[7],1400 nM
same,IC50,[8],> 10000 nM
same,IC50,[9],10600 nM
same,IC50,[10],> 10000 nM
same,growth of human MCF-7 breast cancer xenografts,[11],reduce the growth
same,IC50,"[12]; Table 3, 3 days incubation, MTS, read-out: IC50 HL-60",2500 nM
same,IC50,"[12]; Table 4, HL-60 cancer cell line, read-out: IC50",1900 nM
same,IC50,"[12]; Table 6, HL-60 cancer cell line, read-out: IC50 (HL-60)",1900 nM
